Values quoted from earlier work in patent publication US9518046B2 (Calitor Sciences, LLC, priority 2015, dated 2016).

Experiments:
[1] = literature; cited from earlier work
[2] = literature; cited from earlier work; remark: listed apart in the source
[3] = system: PI3Kδ; conditions: literature; cited from earlier work
[4] = system: protein kinases; conditions: literature; cited from earlier work
[5] = murine model of asthma, ovalbumin-induced airway inflammation; literature; cited from earlier work

Compound	efficacy in mouse model of rheumatoid arthritis [1]	effect on onset of disease in model of systemic lupus erythematosis [2]	inhibits PI3Kδ [3]	activity against any protein kinases tested [4]	effect on inflammation and disease [5]
O=C1NC(=O)/C(=C\c2ccc3nccnc3c2)S1 [AS 605240]	efficacious	delay onset of disease			
Cc1ccccc1-n1c(Cn2cnc3c(N)ncnc32)nc2cccc(C)c2c1=O [IC87114]			high nanomolar range (triple digit)	no activity	significantly ameliorate inflammation and disease
